Entries after “also recorded” stand apart in the source; their conditions may differ.
How the values were obtained:
[1] = system: mouse L1210 leukemia; settings: mouse L1210 leukemia model; Atwell, Cain and Seelye 1972; cited from earlier work
[2] = Potency and antitumour activity in in vivo test systems (general statements)
[3] = system: P388 leukemia; assay: P388 leukemia in vivo (increase in lifespan of mice, i.p. tumour); settings: for active (P388): P388, at the stated dose; for ILSmax (percentage increase in lifespan), marked * / ILSmax (percentage increase in lifespan): P388, at OD on days 1, 5, 9, >20% statistically significant; for ILSmax (percentage increase in lifespan): values without asterisk, controls 11 days
[4] = system: Lewis lung carcinoma; assay: Lewis lung carcinoma in vivo (increase in lifespan of mice, i.v. tumour); settings: for ILS (percentage increase in lifespan) / active (Lewis lung) / ILS (percentage increase in lifespan), marked *: Lewis lung; for ILS (percentage increase in lifespan) / ILS (percentage increase in lifespan), marked *: at OD on days 1, 5, 9, >40% statistically significant; for ILS (percentage increase in lifespan): values without asterisk, controls 17 days; for active (Lewis lung): at the stated dose
[5] = system: Aerobacter aerogenes; assay: Antibacterial activity
[6] = system: Streptococcus faecalis; assay: Antibacterial activity
[7] = system: Micrococcus lysodeikticus; assay: Antibacterial activity
[8] = system: Staphylococcus aureus; assay: Antibacterial activity
[9] = system: Neisseria catarrhalis; assay: Antibacterial activity
[10] = system: Bacillus subtilis; assay: Antibacterial activity
[11] = system: Alcaligenes viscolactis; assay: Antibacterial activity
[12] = system: Escherichia coli; assay: Antibacterial activity
[13] = system: Xanthomonas phaseoli; assay: Antibacterial activity
[14] = system: Sarcina lutea; assay: Antibacterial activity
[15] = 3'-substituted AMSA analogues; earlier publications; cited from earlier work

CS(=O)(=O)Nc1ccc(Nc2c3ccccc3nc3ccccc23)cc1 [AMSA, 4'-(9-acridinylamino) methanesulphonanilide]
antitumour activity [1]: good antitumour activity

CNc1cc(NS(C)(=O)=O)ccc1Nc1c2ccccc2nc2ccccc12 [Compound 1]
potency and antitumour activity (in words) [2]: increased potency and antitumour activity compared to the unsubstituted AMSA and the 3'-methoxy derivative m-AMSA (amsacrine)
active (P388) [3]: Y
ILS (percentage increase in lifespan) [4]: 85%
active (Lewis lung) [4]: Y

CNc1cc(NS(C)(=O)=O)ccc1Nc1c2ccccc2nc2c(C)cccc12 [Compound 12]
antibacterial activity [5]: active
antibacterial activity [6]: active
antibacterial activity [7]: active
antibacterial activity [8]: active
antibacterial activity [9]: active
antibacterial activity [10]: active
ILSmax (percentage increase in lifespan), marked * [3]: 157%
active (P388) [3]: Y
antibacterial activity [11]: active
antibacterial activity [12]: active
ILS (percentage increase in lifespan), marked * [4]: 159%
active (Lewis lung) [4]: Y
antibacterial activity [13]: active
antibacterial activity [14]: active

CNc1cc(NC(=O)OC)ccc1Nc1c2ccc(Cl)cc2nc2c(C)cccc12 [Compound 56]
ILSmax (percentage increase in lifespan), marked * [3]: 151%
active (P388) [3]: Y
ILS (percentage increase in lifespan) [4]: 100%
active (Lewis lung) [4]: Y

CNc1cc(NC(=O)OC)ccc1Nc1c2ccc(Br)cc2nc2c(C)cccc12 [Compound 57]
ILSmax (percentage increase in lifespan) [3]: 97%
active (P388) [3]: Y
ILS (percentage increase in lifespan), marked * [4]: 82%
active (Lewis lung) [4]: Y

CNc1cc(NC(=O)OC)ccc1Nc1c2ccccc2nc2c(C)cccc12 [Compound 58]
ILSmax (percentage increase in lifespan) [3]: 114%
active (P388) [3]: Y
ILS (percentage increase in lifespan), marked * [4]: 48%
active (Lewis lung) [4]: Y

COc1cc(NS(C)(=O)=O)ccc1Nc1c2ccccc2nc2ccccc12 [m-AMSA, 4'-(9-acridinylamino)methanesulphon-m-anisidide, reference compound]
ILSmax (percentage increase in lifespan) [3]: 78%
active (P388) [3]: Y
antitumour activity / dose potency (in words) [15]: increased dose potency
ILS (percentage increase in lifespan) [4]: 38%
active (Lewis lung) [4]: Y/N
Lewis lung activity (in words) ([4]; tumour implanted intravenously, ILS of 40% required for statistical significance): minimal activity; also recorded: strictly inactive

Reference: patent US4795826A, “Ortho-phenylenediamine compounds” (priority 1986, dated 1989)
